From patent US8377884B2, “Variants of C-type natriuretic peptides” (Biomarin Pharmaceutical Inc., priority 2007, dated 2013)
Read-outs that look alike come from different tables or passages of the source. Bridge positions count the residues as written; N and C are the ends. Square brackets hold non-standard residues; d marks the D form. Peptide text beside a SMILES is read from it. * marks the point of attachment. CH3O(CH2CH2O)11CH2CH2CO = COCCOCCOCCOCCOCCOCCOCCOCCOCCOCCOCCOCCC(=O)*; Tle = CC(C)(C)[C@H](N)C(=O)O

Assays:
NPR-B = biological target: T1, NPR-B (Mus musculus, UniProt Q6VVW5); test: Stimulation of cGMP production in NIH3T3 cells; type: cell-based, Murine; settings: for cGMP response relative to 1 uM CNP22 (%) at 0.01 µM: read-out: cGMP Response rel. to 1 uM CNP22, 10 nM; for cGMP response relative to 1 uM CNP22 (%) at 1 µM: read-out: cGMP Response rel. to 1 uM CNP22, 1 uM
T1 construct: Murine NIH3T3 cells express endogenously the CNP signaling receptor, NPR-B; endogenous in cells; host or cells: NIH3T3 (murine fibroblasts)
T1 sequence (Q6VVW5 17-1047): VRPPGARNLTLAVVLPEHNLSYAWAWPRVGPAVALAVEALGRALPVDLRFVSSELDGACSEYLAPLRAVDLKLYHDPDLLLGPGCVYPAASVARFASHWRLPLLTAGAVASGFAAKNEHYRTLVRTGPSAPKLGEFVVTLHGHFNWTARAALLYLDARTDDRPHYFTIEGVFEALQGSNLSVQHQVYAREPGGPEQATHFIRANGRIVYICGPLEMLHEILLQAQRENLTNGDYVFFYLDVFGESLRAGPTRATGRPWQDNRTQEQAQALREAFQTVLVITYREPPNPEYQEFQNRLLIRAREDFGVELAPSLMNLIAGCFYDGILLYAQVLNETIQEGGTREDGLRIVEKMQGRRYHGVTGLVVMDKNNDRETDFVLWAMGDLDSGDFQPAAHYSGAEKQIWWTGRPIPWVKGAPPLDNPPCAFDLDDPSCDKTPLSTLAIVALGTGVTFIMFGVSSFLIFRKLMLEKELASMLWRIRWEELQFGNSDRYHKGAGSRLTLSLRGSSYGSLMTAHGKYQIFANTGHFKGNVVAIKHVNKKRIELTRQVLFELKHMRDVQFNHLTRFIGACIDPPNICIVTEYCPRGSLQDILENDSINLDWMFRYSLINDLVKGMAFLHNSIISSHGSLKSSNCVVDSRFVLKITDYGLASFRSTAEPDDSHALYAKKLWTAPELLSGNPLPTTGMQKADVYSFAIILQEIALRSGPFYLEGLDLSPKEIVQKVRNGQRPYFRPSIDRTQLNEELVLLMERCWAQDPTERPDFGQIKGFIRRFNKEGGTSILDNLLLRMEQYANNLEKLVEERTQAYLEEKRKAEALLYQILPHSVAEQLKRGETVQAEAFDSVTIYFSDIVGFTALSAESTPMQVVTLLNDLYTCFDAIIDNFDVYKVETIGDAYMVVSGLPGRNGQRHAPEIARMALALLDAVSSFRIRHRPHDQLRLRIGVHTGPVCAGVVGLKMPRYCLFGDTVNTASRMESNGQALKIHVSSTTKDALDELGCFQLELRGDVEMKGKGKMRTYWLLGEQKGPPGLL

[1] = biological target: neutral endopeptidase (NEP) (Homo sapiens, UniProt P08473); test: In vitro neutral endopeptidase (NEP) cleavage assay; settings: human, pH 7
Method in brief: (§1)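 Recombinant human NEP (1 ug/mL final) incubated with 100 uM CNP variant in 0.1 M Tris, pH 7, at 37° C for various times, then quenched with EDTA (10 mM final) and heat. Samples reduced and analysed by HPLC and mass spectrometry. Half-life derived from loss of intact variant over time.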

Recombinant human NEP = Recombinant human NEP (Homo sapiens, UniProt P08473); test: in vitro
Method in brief: as §1

[2] = NIH3T3 cells, 10 nM natriuretic peptide, normalized to cell number and cGMP production with 1 uM wtCNP22
[3] = NIH3T3 cells, 1 uM natriuretic peptide, normalized to cell number and cGMP production with 1 uM wtCNP22
[4] = in vitro NEP cleavage assay, assay period 160 minutes

Recombinant human NEP, sequence (P08473 whole entry): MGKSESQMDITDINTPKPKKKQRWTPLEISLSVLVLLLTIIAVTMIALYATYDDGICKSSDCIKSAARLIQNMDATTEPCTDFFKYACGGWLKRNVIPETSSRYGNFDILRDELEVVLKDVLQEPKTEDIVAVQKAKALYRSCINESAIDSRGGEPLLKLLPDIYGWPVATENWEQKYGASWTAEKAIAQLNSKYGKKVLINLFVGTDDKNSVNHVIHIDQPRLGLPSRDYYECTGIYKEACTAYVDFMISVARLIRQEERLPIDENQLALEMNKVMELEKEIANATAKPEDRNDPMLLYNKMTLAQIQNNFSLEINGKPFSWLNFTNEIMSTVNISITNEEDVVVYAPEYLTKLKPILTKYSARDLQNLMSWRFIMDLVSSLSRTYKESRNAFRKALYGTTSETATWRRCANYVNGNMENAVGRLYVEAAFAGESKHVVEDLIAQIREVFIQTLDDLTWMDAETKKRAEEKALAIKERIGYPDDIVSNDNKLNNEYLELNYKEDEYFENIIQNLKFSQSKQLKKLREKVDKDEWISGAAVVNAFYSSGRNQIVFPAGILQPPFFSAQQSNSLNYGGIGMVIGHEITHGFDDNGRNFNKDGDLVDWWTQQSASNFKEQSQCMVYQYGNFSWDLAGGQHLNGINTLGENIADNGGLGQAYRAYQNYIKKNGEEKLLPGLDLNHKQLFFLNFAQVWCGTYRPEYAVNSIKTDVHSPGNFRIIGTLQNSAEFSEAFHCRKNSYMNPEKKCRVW
neutral endopeptidase (NEP), sequence (P08473 whole entry): as above

SMILES	cGMP response relative to 1 uM CNP22 (%) at 0.01 µM (NPR-B; [2]) [%]	cGMP response relative to 1 uM CNP22 (%) at 1 µM (NPR-B; [3]) [%]	cGMP response relative to 1 uM CNP22 (%) at 0.01 µM (NPR-B; NIH3T3, […]) [%]	cGMP response relative to 1 uM CNP22 (%) at 1 µM (NPR-B; NIH3T3, […]) [%]	half-life at 100 uM [1] [h]	resistance to NEP cleavage/degradation (in words) (Recombinant human NEP; [4])	other results
CC[C@H](C)[C@@H]1NC(=O)[C@H](CCCNC(=N)N)NC(=O)[C@H](CC(=O)O)NC(=O)[C@H](CC(C)C)NC(=O)[C@H](CCCCN)NC(=O)[C@H](CC(C)C)NC(=O)[C@H](C(C)(C)C)NC(=O)[C@H](Cc2ccccc2)NC(=O)[C@@H](NC(=O)CNC(=O)[C@H](CCCCN)NC(=O)[C@H](CO)NC(=O)[C@H](CC(C)C)NC(=O)CN)CSSC[C@@H](C(=O)O)NC(=O)CNC(=O)[C@H](CC(C)C)NC(=O)CNC(=O)[C@H](CO)NC(=O)[C@H](CCSC)NC(=O)[C@H](CO)NC(=O)CNC1=O [F] (H-GLSKGCF[Tle]LKLDRIGSMSGLGC-OH; disulfide 6-22 (inferred); N-terminus and C-terminus assumed)	2	18	–	–	–	–	half-life at 100 uM ([1]; recombinant human neutral endopeptidase (NEP)): 1.33 h; resistance to cleavage at the Cys6-Phe7 bond relative to wtCNP22 (Recombinant human NEP): resistance or improved resistance
CC[C@H](C)[C@@H]1NC(=O)[C@H](CCCNC(=N)N)NC(=O)[C@H](CC(=O)O)NC(=O)[C@H](CC(C)C)NC(=O)[C@H](CCCCN)NC(=O)[C@H](CC(C)C)NC(=O)CNC(=O)[C@H](Cc2cccc(Cl)c2)NC(=O)[C@@H](NC(=O)CNC(=O)[C@H](CCCCN)NC(=O)[C@H](CO)NC(=O)[C@H](CC(C)C)NC(=O)CN)CSSC[C@@H](C(=O)O)NC(=O)CNC(=O)[C@H](CC(C)C)NC(=O)CNC(=O)[C@H](CO)NC(=O)[C@H](CCSC)NC(=O)[C@H](CO)NC(=O)CNC1=O [G]	–	–	17	93	2.25	–	half-life in comparison to wtCNP22 (Recombinant human NEP; NEP at 1 ug/ml): about 1.5 times; resistance to cleavage at the Cys6-Phe7 bond relative to wtCNP22 (Recombinant human NEP; data not shown): resistance or improved resistance; resistance to cleavage of the Gly8-Leu9 bond (Recombinant human NEP; in the presence of 1 ug/mL NEP, data not shown): exhibited resistance
CC[C@H](C)[C@@H]1NC(=O)[C@H](CCCNC(=N)N)NC(=O)[C@H](CC(=O)O)NC(=O)[C@H](CC(C)C)N(C)C(=O)[C@H](CCCCN)NC(=O)[C@H](CC(C)C)N(C)C(=O)CNC(=O)[C@H](Cc2ccccc2)NC(=O)[C@@H](NC(=O)CNC(=O)[C@H](CCCCN)NC(=O)[C@H](CO)NC(=O)[C@H](CC(C)C)NC(=O)CN)CSSC[C@@H](C(=O)O)NC(=O)CNC(=O)[C@H](CC(C)C)N(C)C(=O)CNC(=O)[C@H](CO)NC(=O)[C@H](CCSC)NC(=O)[C@H](CO)NC(=O)CNC1=O [L]	–	–	18	10	0.5	significantly shorter half-life	–
CC[C@H](C)[C@@H]1NC(=O)[C@H](CCCNC(=N)N)NC(=O)[C@H](CC(=O)O)NC(=O)[C@H](CC(C)C)N(C)C(=O)[C@H](CCCCN)NC(=O)[C@H](CC(C)C)N(C)C(=O)CNC(=O)[C@H](Cc2ccccc2)NC(=O)[C@@H](NC(=O)CNC(=O)[C@H](CCCCN)NC(=O)[C@H](CO)NC(=O)[C@H](CC(C)C)NC(=O)CN)CSSC[C@@H](C(=O)O)NC(=O)CNC(=O)[C@H](CC(C)C)NC(=O)CNC(=O)[C@H](CO)NC(=O)[C@H](CCSC)NC(=O)[C@H](CO)NC(=O)CNC1=O [M]	–	–	1	11	> 2.67	greatest resistance to NEP cleavage	–
CC[C@@H](C)[C@H]1NC(=O)[C@@H](CCCNC(=N)N)NC(=O)[C@@H](CC(=O)O)NC(=O)[C@@H](CC(C)C)NC(=O)[C@@H](CCCCN)NC(=O)[C@@H](CC(C)C)NC(=O)CNC(=O)[C@@H](Cc2ccccc2)NC(=O)[C@H](NC(=O)CNC(=O)[C@@H](CCCCN)NC(=O)[C@@H](CO)NC(=O)[C@@H](CC(C)C)NC(=O)CN)CSSC[C@H](C(=O)O)NC(=O)CNC(=O)[C@@H](CC(C)C)NC(=O)CNC(=O)[C@@H](CO)NC(=O)[C@@H](CCSC)NC(=O)[C@@H](CO)NC(=O)CNC1=O [N]	–	–	2	1	> 2.67	greatest resistance to NEP cleavage	–
CC[C@H](C)[C@@H]1NC(=O)[C@H](CCCNC(=N)N)NC(=O)[C@H](CC(=O)O)NC(=O)[C@H](CC(C)C)NC(=O)[C@H](CCCCN)NC(=O)[C@H](CC(C)C)NC(=O)CNC(=O)[C@H](Cc2ccccc2)NC(=O)[C@@H](NC(=O)CNC(=O)[C@H](CCCNC(=N)N)NC(=O)[C@H](CO)NC(=O)[C@H](CC(C)C)NC(=O)CNC(=O)[C@H](CCCNC(=N)N)NC(=O)[C@H](CCCNC(=N)N)NC(=O)[C@H](CC(N)=O)NC(=O)[C@H](C)NC(=O)CNC(=O)CCOCCOCCOCCOCCOCCOCCOCCOCCOCCOCCOCCOC)CSSC[C@@H](C(=O)O)NC(=O)CNC(=O)[C@H](CC(C)C)NC(=O)CNC(=O)[C@H](CO)NC(=O)[C@H](CCSC)NC(=O)[C@H](CO)NC(=O)CNC1=O [PEO12-GANRR-CNP22, K4R (CNP27)] ({CH3O(CH2CH2O)11CH2CH2CO}-GANRRGLSRGCFGLKLDRIGSMSGLGC-OH; disulfide 11-27; C-terminus assumed)	40 ± 2	99 ± 13	–	–	> 2.67	–	NPR-B stimulation activity / cGMP production compared with wtCNP22 (in words) (NPR-B; NIH3T3 cells): substantially the same NPR-B stimulation activity as CNP22; resistance to NEP cleavage/degradation (in words) (Recombinant human NEP): much more resistant to NEP degradation than CNP22
CC[C@H](C)[C@@H]1NC(=O)[C@H](CCCNC(=N)N)NC(=O)[C@H](CC(=O)O)NC(=O)[C@H](CC(C)C)NC(=O)[C@H](CCCCN)NC(=O)[C@H](CC(C)C)NC(=O)CNC(=O)[C@H](Cc2ccccc2)NC(=O)[C@@H](NC(=O)CNC(=O)[C@H](CCCNC(=N)N)NC(=O)[C@H](CO)NC(=O)[C@H](CC(C)C)NC(=O)CNC(=O)[C@H](CCCNC(=N)N)NC(=O)CCOCCOCCOCCOCCOCCOCCOCCOCCOCCOCCOCCOC)CSSC[C@@H](C(=O)O)NC(=O)CNC(=O)[C@H](CC(C)C)NC(=O)CNC(=O)[C@H](CO)NC(=O)[C@H](CCSC)NC(=O)[C@H](CO)NC(=O)CNC1=O [PEO12-R-CNP22, K4R] ({CH3O(CH2CH2O)11CH2CH2CO}-RGLSRGCFGLKLDRIGSMSGLGC-OH; disulfide 7-23)	23 ± 2	93 ± 19	–	–	≥ 2.67	–	resistance to NEP cleavage/degradation (in words) (Recombinant human NEP): much more resistant to NEP degradation than CNP22
CC[C@H](C)[C@@H]1NC(=O)[C@H](CCCNC(=N)N)NC(=O)[C@H](CC(=O)O)NC(=O)[C@H](CC(C)C)NC(=O)[C@H](CCCCN)NC(=O)[C@H](CC(C)C)NC(=O)CNC(=O)[C@H](Cc2ccccc2)NC(=O)[C@@H](NC(=O)CNC(=O)[C@H](CCCCN)NC(=O)[C@H](CO)NC(=O)[C@H](CC(C)C)NC(=O)CNC(=O)CCOCCOCCOCCOCCOCCOCCOCCOCCOCCOCCOCCOCCOCCOCCOCCOCCOCCOCCOCCOCCOCCOCCOCCOC)CSSC[C@@H](C(=O)O)NC(=O)CNC(=O)[C@H](CC(C)C)NC(=O)CNC(=O)[C@H](CO)NC(=O)[C@H](CCSC)NC(=O)[C@H](CO)NC(=O)CNC1=O [PEO24-CNP22]	8 ± 5	46 ± 10	–	–	> 2.67	resistant to NEP degradation over the assay period of 160 minutes	–
